Experimental data: patent US9688669B2, “Oxazolidinones as modulators of mGluR5” (BRISTOL-MYERS SQUIBB COMPANY, priority 2013, dated 2017)

target: human mGluR5A (Homo sapiens (Human), UniProt P41594); experiment: mGluR5 FLIPR Assay; type: cell-based; settings: positive modulator activity, HEK293 (ZF) cells with human mGluR5A and rat GLAST, Ca++ response to ~EC10 l-glutamate
Method: HEK293 (ZF) cells stably transfected with human mGluR5A (pIRES neo) and the rat glutamate-aspartate transporter (GLAST; pIRES puro) are grown in a monolayer culture at 37° C. in 5% CO2 and fed with Minimum Essential Medium (MEM) supplemented with 10% dialysed fetal bovine serum. […] Plates are incubated in dye at 37° C. in 5% CO2 for 60 minutes prior to delivery of test compounds in assay buffer. Test compounds are incubated with cells in the presence of dye for 10 minutes prior to being read on the FLIPR platform (Molecular Devices). A Ca^++ signal is induced in the assay plates via the delivery of an ˜EC10 concentration of the endogenous agonist 1-glutamate; images are acquired at 1 Hz for 100 seconds post-delivery of agonist stimulus. Positive modulator activity (i.e. the ability of test compounds to increase the Ca^++ response to a sub-maximal concentration of agonist) is normalized to a saturating concentration of a known mGluR5 PAM run in each assay plate. An EC50 concentration of test compounds is derived from 4-parameter logistic curve fits of transformed fluoresence data via proprietary software suite.

Chain of human mGluR5A (P41594 other isoform, or with tags, fused parts or gaps): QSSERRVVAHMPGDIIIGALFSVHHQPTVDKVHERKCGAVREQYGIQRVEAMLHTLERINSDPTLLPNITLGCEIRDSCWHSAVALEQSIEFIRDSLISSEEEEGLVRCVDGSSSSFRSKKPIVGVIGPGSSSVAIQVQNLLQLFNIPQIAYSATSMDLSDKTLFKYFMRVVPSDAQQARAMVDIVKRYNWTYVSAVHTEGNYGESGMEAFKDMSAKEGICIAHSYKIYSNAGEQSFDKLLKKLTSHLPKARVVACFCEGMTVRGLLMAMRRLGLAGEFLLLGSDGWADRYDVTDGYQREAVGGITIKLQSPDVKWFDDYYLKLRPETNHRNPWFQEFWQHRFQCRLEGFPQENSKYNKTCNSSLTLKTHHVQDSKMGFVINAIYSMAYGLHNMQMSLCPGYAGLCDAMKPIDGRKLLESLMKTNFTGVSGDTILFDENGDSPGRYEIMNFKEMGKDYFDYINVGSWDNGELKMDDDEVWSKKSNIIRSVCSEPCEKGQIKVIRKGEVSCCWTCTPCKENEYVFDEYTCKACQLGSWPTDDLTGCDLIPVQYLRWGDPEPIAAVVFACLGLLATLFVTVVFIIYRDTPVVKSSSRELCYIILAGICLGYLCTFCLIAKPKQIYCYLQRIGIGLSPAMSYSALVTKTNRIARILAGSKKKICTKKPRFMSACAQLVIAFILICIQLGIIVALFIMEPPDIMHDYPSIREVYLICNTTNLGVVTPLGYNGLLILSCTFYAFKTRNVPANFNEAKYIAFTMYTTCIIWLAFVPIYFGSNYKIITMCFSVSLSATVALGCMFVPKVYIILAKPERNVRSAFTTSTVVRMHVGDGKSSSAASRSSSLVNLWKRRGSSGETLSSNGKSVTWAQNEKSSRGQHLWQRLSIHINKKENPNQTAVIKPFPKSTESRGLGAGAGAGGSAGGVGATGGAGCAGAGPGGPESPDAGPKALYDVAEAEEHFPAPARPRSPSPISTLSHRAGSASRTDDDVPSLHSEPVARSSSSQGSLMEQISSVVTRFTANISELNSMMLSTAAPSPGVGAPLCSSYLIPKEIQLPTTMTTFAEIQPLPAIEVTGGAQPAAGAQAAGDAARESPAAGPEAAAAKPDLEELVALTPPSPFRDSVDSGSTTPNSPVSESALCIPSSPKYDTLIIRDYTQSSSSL

SMILES | EC50
CC1CC1C(O)C#Cc1cncc([C@H]2NC(=O)O[C@@H]2c2cccc(F)c2)c1 (some centres unmarked) [Example 75] | 129 nM
CC1(C)CC1C(O)C#Cc1cncc([C@H]2NC(=O)O[C@@H]2c2cccc(F)c2)c1 (some centres unmarked) [Example 77] | > 1610 nM
CN(C)CC#Cc1cncc([C@H]2NC(=O)O[C@@H]2c2cccc(F)c2)c1 [Example 79, (4R,5R)-4-(5-(3-(Dimethylamino)prop-1-yn-1-yl)pyridin-3-yl)-5-(3-fluorophenyl)oxazolidin-2-one] | 463 nM
COc1cccc([C@H]2OC(=O)N[C@@H]2c2cccc(C#CC3CC3)c2)c1 [Example 80, (4R,5R)-4-(3-(Cyclopropylethynyl)phenyl)-5-(3-methoxyphenyl)oxazolidin-2-one] | > 3000 nM
O=C1N[C@H](c2cncc(C#CC3CCCCC3)c2)[C@@H](c2cc(F)ccc2F)O1 [Example 81, (4R,5R)-4-(5-(Cyclohexylethynyl)pyridin-3-yl)-5-(2,5-difluorophenyl)oxazolidin-2-one] | 351 nM
O=C1N[C@H](c2cncc(C#CC34CCC(CC3)CC4)c2)[C@@H](c2cc(F)ccc2F)O1 [Example 82, (4R,5R)-4-(5-(Bicyclo[2.2.2]octan-1-ylethynyl)pyridin-3-yl)-5-(2,5-difluorophenyl)oxazolidin-2-one] | 1310 nM
O=C1N[C@H](c2cncc(C#CC34CCC(CC3)CC4)c2)[C@@H](c2cccc(F)c2)O1 [Example 84, (4R,5R)-4-(5-(Bicyclo[2.2.2]octan-1-ylethynyl)pyridin-3-yl)-5-(3-fluorophenyl)oxazolidin-2-one] | 3670 nM
O=C1N[C@H](c2cncc(C#CC3CCC(F)(F)CC3)c2)[C@@H](c2cccc(F)c2)O1 [Example 92, (4R,5R)-4-(5-((4,4-Difluorocyclohexyl)ethynyl)pyridin-3-yl)-5-(3-fluorophenyl)oxazolidin-2-one] | 50.9 nM
O=C1N[C@H](c2cc(C#CC3CC(F)(F)C3)cnc2F)[C@@H](c2cccc(F)c2)O1 [Example 111, (4R,5R)-4-(5-((3,3-Difluorocyclobutyl)ethynyl)-2-fluoropyridin-3-yl)-5-(3-fluorophenyl)oxazolidin-2-one] | 104 nM
O=C1N[C@H](c2cc(C#CC3CC(F)(F)C3)ccn2)[C@@H](c2ccccc2)O1 [Example 112, (4R,5R)-4-(4-((3,3-Difluorocyclobutyl)ethynyl)pyridin-2-yl)-5-phenyloxazolidin-2-one] | > 3230 nM
O=C1N[C@H](c2cccc(C#CC3CC(F)(F)C3)n2)[C@@H](c2ccccc2)O1 [Example 113, (4R,5R)-4-(6-((3,3-Difluorocyclobutyl)ethynyl)pyridin-2-yl)-5-phenyloxazolidin-2-one] | > 3230 nM
O=C1N[C@H](c2ccnc(C#CC3CC(F)(F)C3)c2)[C@@H](c2ccccc2)O1 [Example 114, (4R,5R)-4-(2-((3,3-Difluorocyclobutyl)ethynyl)pyridin-4-yl)-5-phenyloxazolidin-2-one] | > 3230 nM
O=C1N[C@H](c2cncc(C#CC3CC(F)(F)C3)c2)[C@@H](c2ccc(F)c(F)c2)O1 [Example 119, (4R,5R)-4-(5-((3,3-Difluorocyclobutyl)ethynyl)pyridin-3-yl)-5-(3,4-difluorophenyl)oxazolidin-2-one] | 21.6 nM
O=C1N[C@H](c2cncc(C#CC3CC3)c2)[C@@H](c2cccc(Cl)c2Cl)O1 [Example 125, (4R,5R)-4-(5-(Cyclopropylethynyl)pyridin-3-yl)-5-(2,3-dichlorophenyl)oxazolidin-2-one] | 179 nM

Continued, values first:

EC50 | SMILES
> 3230 nM | Cc1cn(CC#Cc2cncc([C@H]3NC(=O)O[C@@H]3c3cccc(F)c3)c2)cn1 [Example 71, (4R,5R)-5-(3-Fluorophenyl)-4-(5-(3-(4-methyl-M-imidazol-1-yl)prop-1-yn-1-yl)pyridin-3-yl)oxazolidin-2-one]
16.6 nM | O=C1N[C@H](c2cncc(C#CC(O)CC3CC3)c2)[C@@H](c2cccc(F)c2)O1 (stereo partly drawn) [Example 72, (4R,5R)-4-(5-(4-Cyclopropyl-3-hydroxybut-1-yn-1-yl)pyridin-3-yl)-5-(3-fluorophenyl)oxazolidin-2-one]
334 nM | O=C1N[C@H](c2cncc(C#CC(O)C3CC3(F)F)c2)[C@@H](c2cccc(F)c2)O1 (some centres unmarked) [Example 76]
1060 nM | O=C1N[C@H](c2cncc(C#CC3(O)CCCCC3)c2)[C@@H](c2cccc(F)c2)O1 [Example 85, (4R,5R)-5-(3-Fluorophenyl)-4-(5-((1-hydroxycyclohexyl)ethynyl)pyridin-3-yl)oxazolidin-2-one]
> 10800 nM | CC1(C#Cc2cncc([C@H]3NC(=O)O[C@@H]3c3cccc(F)c3)c2)CCCCC1 [Example 87, (4R,5R)-5-(3-Fluorophenyl)-4-(5-((1-methylcyclohexyl)ethynyl)pyridin-3-yl)oxazolidin-2-one]
377 nM | O=C1N[C@H](c2cncc(C#CC34CCCCC3C4)c2)[C@@H](c2cccc(F)c2)O1 (stereo partly drawn) [Example 90, (4R,5R)-4-(5-(Bicyclo[4.1.0]heptan-1-ylethynyl)pyridin-3-yl)-5-(3-fluorophenyl)oxazolidin-2-one]
96.2 nM | O=C1N[C@H](c2cncc(C#CC3(F)CCCCC3)c2)[C@@H](c2cccc(F)c2)O1 [Example 91, (4R,5R)-4-(5-((1-Fluorocyclohexyl)ethynyl)pyridin-3-yl)-5-(3-fluorophenyl)oxazolidin-2-one]
282 nM | O=C1N[C@H](c2cncc(C#CC3CCOCC3)c2)[C@@H](c2cc(F)ccc2F)O1 [Example 100, (4R,5R)-5-(2,5-Difluorophenyl)-4-(5-((tetrahydro-2H-pyran-4-yl)ethynyl)pyridin-3-yl)oxazolidin-2-one]
280 nM | N#Cc1cccc([C@H]2OC(=O)N[C@@H]2c2cncc(C#CC3CC(F)(F)C3)c2)c1 [Example 107, 3-((4R,5R)-4-(5-((3,3-Difluorocyclobutyl)ethynyl)pyridin-3-yl)-2-oxooxazolidin-5-yl)benzonitrile]
> 1610 nM | COc1cccc([C@H]2OC(=O)N[C@@H]2c2cccc(C#CC3CC(F)(F)C3)c2)c1 [Example 116, (4R,5R)-4-(3-((3,3-Difluorocyclobutyl)ethynyl)phenyl)-5-(3-methoxyphenyl)oxazolidin-2-one]
80.5 nM | O=C1N[C@H](c2cncc(C#CC3CC(F)(F)C3)c2)[C@@H](c2ccc(F)c(F)c2F)O1 [Example 118, (4R,5R)-4-(5-((3,3-Difluorocyclobutyl)ethynyl)pyridin-3-yl)-5-(2,3,4-trifluorophenyl)oxazolidin-2-one]
58.6 nM | O=C1N[C@H](c2cncc(C#CC3CC(F)(F)C3)c2)[C@@H](c2cc(F)c(F)cc2F)O1 [Example 122, (4R,5R)-4-(5-((3,3-Difluorocyclobutyl)ethynyl)pyridin-3-yl)-5-(2,4,5-trifluorophenyl)oxazolidin-2-one]
